Data: ChEMBL document CHEMBL5653615 (J Biol Chem, 2013)

Assays:
[1] = molecular target: Homeodomain-interacting protein kinase 1 (Homo sapiens) (UniProt Q86Z02); experiment: Inhibition of human HIPK1 at 500 nM by HotSpot assay relative to control
[2] = molecular target: Mitogen-activated protein kinase kinase kinase 10 (Homo sapiens) (UniProt Q02779); experiment: Inhibition of human MAP3K10 at 500 nM by HotSpot assay relative to control
[3] = molecular target: T1, Serine/threonine-protein kinase haspin (Homo sapiens) (UniProt Q8TF76); experiment: Inhibition of human Haspin at 500 nM by HotSpot assay relative to control
T1 sequence (whole entry): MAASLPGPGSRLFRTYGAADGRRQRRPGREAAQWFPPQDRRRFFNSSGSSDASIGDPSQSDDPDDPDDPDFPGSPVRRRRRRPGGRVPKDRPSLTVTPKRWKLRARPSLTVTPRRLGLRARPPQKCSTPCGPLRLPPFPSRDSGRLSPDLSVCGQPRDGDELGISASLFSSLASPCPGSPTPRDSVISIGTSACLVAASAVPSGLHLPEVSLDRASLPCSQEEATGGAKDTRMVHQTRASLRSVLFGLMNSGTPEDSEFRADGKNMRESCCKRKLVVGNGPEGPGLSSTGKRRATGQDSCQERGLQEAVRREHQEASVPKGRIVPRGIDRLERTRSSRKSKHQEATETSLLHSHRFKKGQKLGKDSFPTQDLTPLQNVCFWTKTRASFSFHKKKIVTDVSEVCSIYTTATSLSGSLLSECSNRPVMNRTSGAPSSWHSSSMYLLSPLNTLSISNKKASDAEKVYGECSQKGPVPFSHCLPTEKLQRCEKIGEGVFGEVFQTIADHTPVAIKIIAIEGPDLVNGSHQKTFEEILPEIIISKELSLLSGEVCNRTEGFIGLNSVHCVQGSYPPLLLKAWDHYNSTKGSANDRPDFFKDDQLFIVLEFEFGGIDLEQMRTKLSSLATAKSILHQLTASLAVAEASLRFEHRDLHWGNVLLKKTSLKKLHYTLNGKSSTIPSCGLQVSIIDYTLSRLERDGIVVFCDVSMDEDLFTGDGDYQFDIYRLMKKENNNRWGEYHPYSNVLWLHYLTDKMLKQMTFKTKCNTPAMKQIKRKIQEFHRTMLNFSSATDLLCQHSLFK

[4] = molecular target: Ribosomal protein S6 kinase alpha-2 (Homo sapiens) (UniProt Q15349); experiment: Inhibition of human RSK3 at 500 nM by HotSpot assay relative to control
[5] = Inhibition of inactive form of human Insulin receptor (978 to 1283 residues) C981S mutant kinase domain expressed in baculovirus infected Sf9 cells incubated for 1 hr by [gamma-33P]ATP assay
[6] = molecular target: RAC-gamma serine/threonine-protein kinase (Homo sapiens) (UniProt Q9Y243); experiment: Inhibition of human AKT3 at 500 nM by HotSpot assay relative to control
[7] = molecular target: Tyrosine-protein kinase ABL1 (Homo sapiens) (UniProt P00519); experiment: Inhibition of human ABL1 at 500 nM by HotSpot assay relative to control
[8] = molecular target: T2, TGF-beta receptor type-1 (Homo sapiens) (UniProt P36897); experiment: Inhibition of human ALK5 at 500 nM by HotSpot assay relative to control
T2 sequence (whole entry): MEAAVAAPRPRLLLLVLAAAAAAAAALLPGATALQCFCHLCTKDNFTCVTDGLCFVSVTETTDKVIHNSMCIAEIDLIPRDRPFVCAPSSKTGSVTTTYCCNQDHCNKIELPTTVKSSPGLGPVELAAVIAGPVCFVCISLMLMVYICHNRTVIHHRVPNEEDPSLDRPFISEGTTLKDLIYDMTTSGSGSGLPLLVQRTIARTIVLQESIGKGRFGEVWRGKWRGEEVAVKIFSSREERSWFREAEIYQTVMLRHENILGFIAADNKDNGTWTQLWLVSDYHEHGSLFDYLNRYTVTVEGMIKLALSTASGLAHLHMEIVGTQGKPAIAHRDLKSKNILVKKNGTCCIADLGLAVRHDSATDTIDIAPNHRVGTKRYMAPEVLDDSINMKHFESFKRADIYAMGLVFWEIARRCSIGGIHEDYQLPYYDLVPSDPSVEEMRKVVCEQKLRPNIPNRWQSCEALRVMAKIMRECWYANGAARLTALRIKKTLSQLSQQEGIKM

[9] = molecular target: Mitogen-activated protein kinase 1 (Homo sapiens) (UniProt P28482); conditions: dose 500.0 nM
Description: Inhibition of human ERK2 at 500 nM by HotSpot assay relative to control

[10] = molecular target: T3, Phosphorylase b kinase gamma catalytic chain, liver/testis isoform (Homo sapiens) (UniProt P15735); experiment: Inhibition of human PHKg2 at 500 nM by HotSpot assay relative to control
T3 sequence (whole entry): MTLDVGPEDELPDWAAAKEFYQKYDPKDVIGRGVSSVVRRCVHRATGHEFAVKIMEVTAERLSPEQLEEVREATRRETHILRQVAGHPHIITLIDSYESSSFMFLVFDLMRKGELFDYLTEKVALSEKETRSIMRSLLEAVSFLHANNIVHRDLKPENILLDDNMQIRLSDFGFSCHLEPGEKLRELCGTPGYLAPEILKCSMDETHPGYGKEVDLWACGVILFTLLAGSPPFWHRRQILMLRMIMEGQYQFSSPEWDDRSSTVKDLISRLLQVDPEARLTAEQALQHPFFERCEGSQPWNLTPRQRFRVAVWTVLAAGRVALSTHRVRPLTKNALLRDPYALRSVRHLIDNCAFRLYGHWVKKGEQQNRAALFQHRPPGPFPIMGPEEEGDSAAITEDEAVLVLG

[11] = molecular target: Dual specificity protein kinase CLK4 (Homo sapiens) (UniProt Q9HAZ1); experiment: Inhibition of human CLK4 at 500 nM by HotSpot assay relative to control
[12] = molecular target: CDK1/Cyclin A (Homo sapiens) (UniProt P06493+P20248); experiment: Inhibition of human CDK1/cyclin A at 500 nM by HotSpot assay relative to control; format: protein-complex assay
CDK1/Cyclin A (Homo sapiens), sequence (P06493 whole entry, looked up): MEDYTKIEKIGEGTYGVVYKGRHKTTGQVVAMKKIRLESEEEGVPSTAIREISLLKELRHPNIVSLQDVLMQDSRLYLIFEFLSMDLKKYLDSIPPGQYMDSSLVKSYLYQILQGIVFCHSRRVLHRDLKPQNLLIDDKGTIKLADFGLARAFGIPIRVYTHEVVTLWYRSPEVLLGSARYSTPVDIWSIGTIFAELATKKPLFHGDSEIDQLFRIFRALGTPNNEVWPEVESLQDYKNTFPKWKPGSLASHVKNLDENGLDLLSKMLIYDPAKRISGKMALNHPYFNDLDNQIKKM
CDK1/Cyclin A (Homo sapiens), sequence (P20248 whole entry, looked up): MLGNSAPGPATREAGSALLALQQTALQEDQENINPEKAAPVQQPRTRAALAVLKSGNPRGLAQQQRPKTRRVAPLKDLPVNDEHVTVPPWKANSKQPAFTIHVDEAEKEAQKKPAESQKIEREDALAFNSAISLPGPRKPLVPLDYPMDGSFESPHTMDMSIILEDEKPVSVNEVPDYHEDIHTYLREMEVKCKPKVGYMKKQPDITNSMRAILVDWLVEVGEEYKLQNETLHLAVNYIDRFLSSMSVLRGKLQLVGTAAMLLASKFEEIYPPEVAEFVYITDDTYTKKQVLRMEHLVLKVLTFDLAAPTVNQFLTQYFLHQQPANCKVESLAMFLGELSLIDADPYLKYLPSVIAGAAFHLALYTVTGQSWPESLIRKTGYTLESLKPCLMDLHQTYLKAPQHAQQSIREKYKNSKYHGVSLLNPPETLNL

Ribosomal protein S6 kinase alpha-2 (Homo sapiens), sequence (Q15349 whole entry, the tested form may be a part): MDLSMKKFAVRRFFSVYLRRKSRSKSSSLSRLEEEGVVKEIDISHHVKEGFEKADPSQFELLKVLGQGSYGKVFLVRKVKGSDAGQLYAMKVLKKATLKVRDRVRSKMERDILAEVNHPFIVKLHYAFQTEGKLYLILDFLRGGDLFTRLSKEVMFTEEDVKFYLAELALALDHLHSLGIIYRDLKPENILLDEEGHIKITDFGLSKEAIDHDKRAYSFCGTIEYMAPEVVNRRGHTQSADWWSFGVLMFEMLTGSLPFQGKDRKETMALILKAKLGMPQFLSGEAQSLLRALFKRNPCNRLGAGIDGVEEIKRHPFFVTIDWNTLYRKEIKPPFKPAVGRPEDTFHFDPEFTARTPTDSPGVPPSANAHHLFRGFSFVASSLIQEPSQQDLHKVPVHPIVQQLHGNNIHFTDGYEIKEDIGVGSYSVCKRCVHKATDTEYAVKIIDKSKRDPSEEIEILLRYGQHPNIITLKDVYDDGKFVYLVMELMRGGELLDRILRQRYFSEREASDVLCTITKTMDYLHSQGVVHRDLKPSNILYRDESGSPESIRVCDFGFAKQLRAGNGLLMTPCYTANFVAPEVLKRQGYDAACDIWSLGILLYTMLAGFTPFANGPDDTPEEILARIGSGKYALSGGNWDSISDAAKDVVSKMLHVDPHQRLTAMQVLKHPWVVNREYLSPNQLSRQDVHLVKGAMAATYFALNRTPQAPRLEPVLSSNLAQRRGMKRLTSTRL
Tyrosine-protein kinase ABL1 (Homo sapiens), sequence (P00519 whole entry): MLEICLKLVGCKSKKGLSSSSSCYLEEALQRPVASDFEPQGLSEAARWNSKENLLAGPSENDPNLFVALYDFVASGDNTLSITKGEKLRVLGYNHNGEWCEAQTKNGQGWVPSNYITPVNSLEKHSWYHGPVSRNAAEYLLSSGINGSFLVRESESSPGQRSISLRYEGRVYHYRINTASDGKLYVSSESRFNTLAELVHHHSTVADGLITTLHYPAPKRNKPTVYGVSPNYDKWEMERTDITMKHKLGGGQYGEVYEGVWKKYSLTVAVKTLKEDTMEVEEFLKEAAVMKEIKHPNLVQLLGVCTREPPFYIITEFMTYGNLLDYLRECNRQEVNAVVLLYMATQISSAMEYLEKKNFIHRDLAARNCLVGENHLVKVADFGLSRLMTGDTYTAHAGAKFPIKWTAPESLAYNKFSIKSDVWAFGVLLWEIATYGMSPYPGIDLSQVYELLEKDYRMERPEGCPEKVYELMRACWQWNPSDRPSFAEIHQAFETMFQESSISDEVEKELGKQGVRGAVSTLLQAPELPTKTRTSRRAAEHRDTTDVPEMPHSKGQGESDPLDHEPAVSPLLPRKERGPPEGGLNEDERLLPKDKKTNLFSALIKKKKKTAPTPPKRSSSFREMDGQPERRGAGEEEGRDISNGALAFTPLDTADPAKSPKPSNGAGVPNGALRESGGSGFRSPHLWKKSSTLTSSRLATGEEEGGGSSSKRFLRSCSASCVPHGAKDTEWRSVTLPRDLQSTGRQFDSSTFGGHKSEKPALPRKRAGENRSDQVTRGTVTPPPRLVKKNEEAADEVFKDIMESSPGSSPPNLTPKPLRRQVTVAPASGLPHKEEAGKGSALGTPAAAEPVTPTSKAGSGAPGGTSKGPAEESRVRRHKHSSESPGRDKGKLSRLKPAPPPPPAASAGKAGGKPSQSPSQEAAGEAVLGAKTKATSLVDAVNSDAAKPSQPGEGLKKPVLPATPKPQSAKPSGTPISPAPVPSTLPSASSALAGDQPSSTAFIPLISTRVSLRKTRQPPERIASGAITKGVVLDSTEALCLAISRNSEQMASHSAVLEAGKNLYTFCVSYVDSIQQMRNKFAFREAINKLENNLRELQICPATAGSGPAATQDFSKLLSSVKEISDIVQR
Dual specificity protein kinase CLK4 (Homo sapiens), sequence (Q9HAZ1 whole entry, looked up): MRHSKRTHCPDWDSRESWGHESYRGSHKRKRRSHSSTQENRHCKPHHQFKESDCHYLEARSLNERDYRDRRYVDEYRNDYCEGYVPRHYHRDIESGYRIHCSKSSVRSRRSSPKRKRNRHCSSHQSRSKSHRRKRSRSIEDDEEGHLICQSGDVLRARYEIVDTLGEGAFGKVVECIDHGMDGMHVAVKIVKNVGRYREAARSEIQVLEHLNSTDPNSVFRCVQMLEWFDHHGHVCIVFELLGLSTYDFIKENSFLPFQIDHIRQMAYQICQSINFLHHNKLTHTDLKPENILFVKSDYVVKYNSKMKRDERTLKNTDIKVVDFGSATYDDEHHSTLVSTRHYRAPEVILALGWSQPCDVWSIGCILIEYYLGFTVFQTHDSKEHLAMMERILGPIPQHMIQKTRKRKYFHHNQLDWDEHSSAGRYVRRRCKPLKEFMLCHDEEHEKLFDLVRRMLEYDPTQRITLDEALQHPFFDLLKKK
Mitogen-activated protein kinase 1 (Homo sapiens), sequence (P28482 whole entry, canonical isoform): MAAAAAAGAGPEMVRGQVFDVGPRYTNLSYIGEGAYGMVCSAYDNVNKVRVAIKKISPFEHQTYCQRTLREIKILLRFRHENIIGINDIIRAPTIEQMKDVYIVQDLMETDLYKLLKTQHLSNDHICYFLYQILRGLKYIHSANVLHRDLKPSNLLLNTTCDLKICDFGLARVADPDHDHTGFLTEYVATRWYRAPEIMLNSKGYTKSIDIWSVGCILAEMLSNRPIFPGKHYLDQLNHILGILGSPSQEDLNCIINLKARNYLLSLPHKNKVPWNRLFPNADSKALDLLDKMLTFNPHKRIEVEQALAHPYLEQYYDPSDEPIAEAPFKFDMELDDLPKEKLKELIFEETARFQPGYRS
Homeodomain-interacting protein kinase 1 (Homo sapiens), sequence (Q86Z02 whole entry, looked up): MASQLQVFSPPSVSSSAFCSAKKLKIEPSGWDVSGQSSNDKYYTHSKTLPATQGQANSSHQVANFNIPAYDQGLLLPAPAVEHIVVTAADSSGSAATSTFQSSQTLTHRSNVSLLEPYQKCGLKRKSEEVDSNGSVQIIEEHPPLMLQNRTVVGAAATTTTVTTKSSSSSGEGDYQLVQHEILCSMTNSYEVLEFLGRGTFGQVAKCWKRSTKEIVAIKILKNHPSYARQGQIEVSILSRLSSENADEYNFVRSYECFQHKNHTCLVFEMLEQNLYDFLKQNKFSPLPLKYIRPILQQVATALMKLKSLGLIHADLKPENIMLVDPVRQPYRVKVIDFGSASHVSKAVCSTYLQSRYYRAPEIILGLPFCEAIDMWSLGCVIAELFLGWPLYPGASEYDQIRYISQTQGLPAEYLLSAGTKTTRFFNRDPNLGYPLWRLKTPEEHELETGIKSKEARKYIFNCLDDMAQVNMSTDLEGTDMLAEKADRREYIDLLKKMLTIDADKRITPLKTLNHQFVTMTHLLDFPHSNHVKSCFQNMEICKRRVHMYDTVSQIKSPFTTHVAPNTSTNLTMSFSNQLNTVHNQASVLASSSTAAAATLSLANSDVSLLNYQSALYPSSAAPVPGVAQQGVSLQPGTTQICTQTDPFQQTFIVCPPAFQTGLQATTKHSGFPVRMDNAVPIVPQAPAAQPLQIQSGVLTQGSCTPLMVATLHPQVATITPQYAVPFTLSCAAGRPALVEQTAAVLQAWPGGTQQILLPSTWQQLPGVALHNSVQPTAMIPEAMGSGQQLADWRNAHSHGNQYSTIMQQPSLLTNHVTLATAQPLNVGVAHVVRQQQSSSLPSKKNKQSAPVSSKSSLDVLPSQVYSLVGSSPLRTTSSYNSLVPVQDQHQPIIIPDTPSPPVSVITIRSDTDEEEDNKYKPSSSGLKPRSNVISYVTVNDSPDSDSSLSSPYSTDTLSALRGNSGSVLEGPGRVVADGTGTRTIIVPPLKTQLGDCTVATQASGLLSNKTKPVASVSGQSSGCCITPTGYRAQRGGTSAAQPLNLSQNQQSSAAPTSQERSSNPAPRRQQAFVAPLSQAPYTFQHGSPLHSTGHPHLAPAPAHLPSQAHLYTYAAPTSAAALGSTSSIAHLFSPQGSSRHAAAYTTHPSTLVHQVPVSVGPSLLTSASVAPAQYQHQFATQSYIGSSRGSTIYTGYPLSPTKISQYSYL

SMILES | inhibition [1] [%] | inhibition [2] [%] | inhibition [3] [%] | inhibition [4] [%] | IC50 [5] [µM] | inhibition [6] [%] | inhibition [7] [%] | inhibition [8] [%] | inhibition [9] [%] | inhibition [10] [%] | inhibition [11] [%] | inhibition [12] [%]
Oc1n[nH]c2nnc(-c3c(-c4ccccc4)nn4ccccc34)cc12 | -1.71 | 5.25 | 11.6 | -4.14 | 1.8 | 2.1 | 0.36 | 4.23 | -0.62 | 8.79 | -0.68 | 0.95
Nc1n[nH]c2nnc(-c3c(-c4ccccc4)nn4ccccc34)cc12 | -4.88 | 9.29 | 2.91 | 3.51 | 5.4 | 2.52 | 16.7 | 3.87 | 12.8 | 17.4 | 5.12 | -0.55
